# Test results as given in US9527830B2 (Merck Sharp & Dohme Corp., priority 2011, dated 2016).
# Target: T1, hROMK1 (Kir1.1) (Homo sapiens, UniProt P48048)
# T1 construct: expressed in transfected cells
# T1 sequence (P48048 1-391): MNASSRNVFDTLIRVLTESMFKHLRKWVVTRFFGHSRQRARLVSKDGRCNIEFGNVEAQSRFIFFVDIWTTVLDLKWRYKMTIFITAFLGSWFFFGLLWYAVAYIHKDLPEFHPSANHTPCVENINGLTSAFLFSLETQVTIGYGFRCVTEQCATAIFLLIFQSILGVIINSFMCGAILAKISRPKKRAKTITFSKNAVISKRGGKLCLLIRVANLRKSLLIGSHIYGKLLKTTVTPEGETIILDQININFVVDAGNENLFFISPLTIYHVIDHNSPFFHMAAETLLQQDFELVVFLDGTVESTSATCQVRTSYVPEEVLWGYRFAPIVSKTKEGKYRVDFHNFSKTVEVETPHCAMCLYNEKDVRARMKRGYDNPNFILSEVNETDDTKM
# Assay: ^86Rb^+ Efflux Assay
# Assay type: cell-based
# Settings: CHO-DHFR- cells stably expressing hROMK1; potency ranges
# Procedure: Several assays may be used to measure functional inhibition of the ROMK channel by compounds of the instant invention. One primary assay that can be used is a functional ^86Rb^+ efflux assay that measures the ability of ROMK to permeate ^86Rb^+, in the absence or presence of test compound. Under control conditions, cells loaded with ^86Rb^+ and incubated in Rb^+-free medium display a time-dependent efflux of the isotope, the rate of which depends on number of functional channels. When cells are incubated in the presence of a channel inhibitor, efflux of ^86Rb^+ is prevented in a concentration-dependent manner, and IC50 values of inhibition by compounds can be accurately determined. This assay has been established with cell lines expressing either human, rat or dog ROMK channels, and can operate in 96- or 384-well format. Importantly, the human, rat, and dog ^86Rb^+ efflux assays can be carried out in the presence of up to 100% serum allowing, therefore, an accurate estimation of the effect of protein binding on the inhibitory activity of compounds of interest. Another ROMK functional assay makes use of the ability of thallium to permeate through open ROMK channels and increase the fluorescence of a dye previously loaded into the cells. Under control conditions, cells loaded with dye and exposed to thallium-containing medium display a time-dependent increase in fluorescence, the rate of which depends on number of functional channels. When cells are incubated in the presence of a channel inhibitor, the increase in fluorescence is attenuated in a concentration-dependent manner, and IC50 values of inhibition by compounds can be accurately determined. This assay has been established with cell lines expressing either human, or rat ROMK channels, and operates in 384-well format. Another assay for evaluation of the compounds of the instant invention and for evaluation of mechanism of action of compounds of Formula I relies on the measurement of the electrical current that is generated as potassium permeates through the channel. For these electrophysiological experiments, three different platforms, IonWorks, QPatch, or manual patch clamp, are used, depending on the experimental protocol under consideration. IonWorks operates in a 384-well format and allows accurate determination of IC50 values for inhibitors.
# CHO-DHFR-cells stably expressing hROMK1 (Kir1.1) were grown at 37° C. in a 10% CO2 humidified incubator in Iscove's Modified Dulbecco's Medium (Gibco 12440) supplemented with HT Supplement, Penicillin/Streptomycin/Glutamine, G418 (500 μg/ml) and 10% FBS. Cells were seeded in Sterile and Tissue Culture Treated Packard CulturPlate White Opaque Microplates at a concentration of 5.0E5-7.0E5 cells/ml—PerkinElmer 6005680 (96-well); Corning 3707 (384 well) in complete media containing 1.5 μCi/ml Rubidium-86. Cells were incubated in 37° C.-10% CO2 incubator overnight. On the day of the experiment, the media was removed and cells washed with low K assay buffer. ^86Rb^+ efflux was initiated after addition of assay buffer±test compound followed by 35 min incubation at room temperature. ROMK-sensitive component of efflux was defined in the presence of 10 mM BaCl2. Assay buffer was removed and transferred to a plate and cells were solubilized in the presence of SDS. Radioactivity associated with assay and cell plate was determined.
# • 1. Removed cell media and washed cells with low K assay buffer (126.9 mM NaCl, 4.6 mM KCl, 2 mM CaCl2, 1 mM MgCl2, 10 mM Hepes/NaOH; pH 7.4) • 200 μl for 96-well plate; 70 μl for 384-well plate • 2. Added assay buffer (121.5 mM NaCl, 10 mM KCl, 2 mM CaCl2, 1 mM MgCl2, 10 mM Hepes/NaOH; pH 7.4)±test compound to cells • 100 μl for 96-well plate; 50 μl for 384-well plate • 3. Incubated at ambient temperature (22-24° C.) for 35 min • 4.
row,SMILES,IC50 [nM]
1,"N#Cc1cc(CCC2(C(F)F)CCN(C(=O)Cc3ccc(-n4cnnn4)cc3)CC2)ccc1F [Example 27, 5-{2-[4-(Difluoromethyl)-1-{[4-(1H-tetrazol-1-yl)phenyl]acetyl}piperidin-4-yl]ethyl}-2-fluorobenzonitrile]",≤ 500
2,"O=C1OCc2c1ccc(CCC1CCN(C(=O)Cc3ccc(-n4cnnn4)cc3)CC1)c2F [Example 57, 4-Fluoro-5-[2-(1-{[4-(1H-tetrazol-1-yl)phenyl]acetyl}piperidin-4-yl)ethyl]-2-benzofuran-1(3H)-one]",≤ 200
3,"N#Cc1cc(CCC2(O)CCN(C(=O)Cc3ccc(-n4cnnn4)cc3)CC2)ccc1F [Example 13, 2-Fluoro-5-[2-(4-hydroxy-1-{[4-(1H-tetrazol-1-yl)phenyl]acetyl}piperidin-4-yl)ethyl]benzonitrile]",≤ 500
4,"COc1cc(CC(=O)N2CCC(CCc3ccc4c(c3)COC4=O)CC2)c(F)cc1C#N [Example 56, 5-Fluoro-2-methoxy-4-(2-oxo-2-{4-[2-(1-oxo-1,3-dihydro-2-benzofuran-5-yl)ethyl]piperidin-1-yl}ethyl)benzonitrile]",≤ 500
5,"COc1cc(CC(=O)N2CCC(CCc3ccc4c(c3)COC4=O)CC2)ccc1C#N [Example 53, 2-Methoxy-4-(2-oxo-2-(4-[2-(1-oxo-1,3-dihydro-2-benzofuran-5-yl)ethyl]piperidin-1-yl}ethyl]benzonitrile]",≤ 500
6,"O=C1OCc2cc(CCC3CCN(C(=O)Cc4ccc5c(c4)COC5=O)CC3)ccc21 [Example 50, 5-(2-{1-[(1-Oxo-1,3-dihydro-2-benzofuran-5-yl)acetyl]piperidin-4-yl}ethyl)-2-benzofuran-1(3H)-one]",≤ 500
7,"CCOC(=O)C1(CCc2ccc(F)c(C#N)c2)CCN(C(=O)Cc2ccc(-n3cnnn3)cc2)CC1 [Example 15, Ethyl 4-[2-(3-cyano-4-fluorophenyl)ethyl]-1-{[4-(1H-tetrazol-1-yl)phenyl]acetyl}piperidine-4-carboxylate]",≤ 500
8,"CN(C)C1(CCc2ccc(F)c(C#N)c2)CCN(C(=O)Cc2ccc(-n3cnnn3)cc2)CC1 [Example 82, 5-{2-[4-(Dimethylamino)-1-{[4-(1H-tetrazol-1-yl)phenyl]acetyl}piperidin-4-yl]ethyl}-2-fluorobenzonitrile]",≤ 500
9,"N#Cc1cc(C#CC2(O)CCN(C(=O)Cc3ccc(-n4cnnn4)cc3)CC2)ccc1F [Example 10, 2-Fluoro-5-[(4-hydroxy-1-{[4-(1H-tetrazol-1-yl)phenyl]acetyl}piperidin-4-yl)ethynyl]benzonitrile]",≤ 500
10,"N#Cc1ccc(/C=C/C2CCN(CCc3ccc4c(c3)COC4=O)CC2)cc1 [Example 84, 4-[(E)-2-{1-[2-(1-Oxo-1,3-dihydro-2-benzofuran-5-yl)ethyl]piperidin-4-yl}ethenyl]benzonitrile]",≤ 500
11,"N#Cc1c(F)ccc(C#CC2(O)CCN(C(=O)Cc3ccc(-n4cnnn4)cc3)CC2)c1F [Example 33, 2,6-Difluoro-3-[(4-hydroxy-1-{[4-(1H-tetrazol-1-yl)phenyl]acetyl}piperidin-4-yl)ethynyl]benzonitrile]",≤ 500
12,"Cc1c(C#CC2(O)CCN(C(=O)Cc3ccc(-n4cnnn4)cc3)CC2)ccc(F)c1C#N [Example 36, 6-Fluoro-3-[(4-hydroxy-1-{[4-(1H-tetrazol-1-yl)phenyl]acetyl}piperidin-4-yl)ethynyl]-2-methylbenzonitrile]",≤ 500
13,"O=C1OCc2c1ccc(/C=C/C1CCN(C(=O)Cc3ccc(-n4cnnn4)cc3)CC1)c2Br [Example 68, 4-Bromo-5-[(E)-2-(1-{[4-(1H-tetrazol-1-yl)phenyl]acetyl}piperidin-4-yl)ethenyl]-2-benzofuran-1(3H)-one]",≤ 500
14,O=C1OCCc2cc(CCC3CCN(C(=O)C4CCc5cc(-n6cnnn6)ccc54)CC3)ccc21 (centres unmarked) [Example 66],≤ 200
15,"O=C1OCc2cc(CCC3CCN(C(=O)Cc4ccc(-n5cnnn5)cc4)CC3)ccc21 [Example 7, 5-[2-(1-{[4-(1H-Tetrazol-1-yl)phenyl]acetyl}piperidin-4-yl)ethyl]-2-benzofuran-1(3H)-one]",≤ 500
16,"N#Cc1c(F)ccc(CCC2(O)CCN(C(=O)Cc3ccc(-n4cnnn4)cc3)CC2)c1Cl [Example 40, 2-Chloro-6-fluoro-3-[2-(4-hydroxy-1-{[4-(1H-tetrazol-1-yl)phenyl]acetyl}piperidin-4-yl)ethyl]benzonitrile]",≤ 500
17,"O=C(Cc1ccc(-n2cnnn2)cc1)N1CCC(CCc2ccc([N+](=O)[O-])cc2)CC1 [Example 4, 2-(4-(1H-Tetrazol-1-yl)phenyl)-1-(4-(4-nitrophenethyl)piperidin-1-yl)ethanone]",≤ 200
18,"O=[N+]([O-])c1ccc(CCC2CCN(CCc3ccc([N+](=O)[O-])cc3)CC2)cc1 [Example 3, 1,4-bis[2-(4-Nitrophenyl)ethyl]piperidine]",≤ 200
19,"N#Cc1cc(CCC2(F)CCN(C(=O)Cc3ccc(-n4cnnn4)cc3)CC2)ccc1F [Example 14, 2-Fluoro-5-[2-(4-fluoro-1-{[4-(1H-tetrazol-1-yl)phenyl]acetyl}piperidin-4-yl)ethyl]benzonitrile]",≤ 500
20,"O=C1OCc2cc(SC3CCN(C(=O)Cc4ccc(-n5cnnn5)cc4)CC3)ccc21 [Example 51, 5-[(1-{[4-(1H-Tetrazol-1-yl)phenyl]acetyl}piperidin-4-yl)sulfanyl]-2-benzofuran-1(3H)-one]",≤ 500
21,"Cc1cc(-n2cnnn2)ccc1CC(=O)N1CCC(O)(CCc2ccc(F)c(C#N)c2)CC1 [Example 18, 2-Fluoro-5-[2-(4-hydroxy-1-{[2-methyl-4-(1H-tetrazol-1-yl)phenyl]acetyl}piperidin-4-yl)ethyl]benzonitrile]",≤ 500
22,"O=C(Cc1ccc(-n2cnnn2)cc1)N1CCC(Sc2ccc([N+](=O)[O-])cc2)CC1 [Example 12, 1-{4-[(4-Nitrophenyl)sulfanyl]piperidin-1-yl}-2-[4-(1H-tetrazol-1-yl)phenyl]ethanone]",≤ 200
23,"O=[N+]([O-])c1ccc(/C=C/C2CCN(CCc3ccc([N+](=O)[O-])cc3)CC2)cc1 [Example 2, 4-[(E)-2-(4-Nitrophenyl)ethenyl]-1-[2-(4-nitrophenyl)ethyl]piperidine]",≤ 200
24,"N#Cc1cc(CCC2(O)CCN(CCc3ccc4c(c3)COC4=O)CC2)ccc1F [Example 30, 2-Fluoro-5-(2-{4-hydroxy-1-[2-(1-oxo-1,3-dihydro-2-benzofuran-5-yl)ethyl]piperidin-4-yl}ethyl)benzonitrile]",≤ 200
25,"COc1cc(CC(=O)N2CCC(CCc3ccc4c(c3)CCOC4=O)CC2)c(F)cc1C#N [Example 67, 5-Fluoro-2-methoxy-4-(2-oxo-2-{4-[2-(1-oxo-3,4-dihydro-1H-isochromen-6-yl)ethyl]piperidin-1-yl}ethyl)benzonitrile]",≤ 500
26,"O=C1OCc2c1ccc(CCC1CCN(C(=O)Cc3ccc(-n4cnnn4)cc3)CC1)c2Br [Example 59, 4-Bromo-5-[2-(1-{[4-(1H-tetrazol-1-yl)phenyl]acetyl}piperidin-4-yl)ethyl]-2-benzofuran-1(3H)-one]",≤ 200
